Data as given in patent US10905118B2, “Triscationic amphiphile compounds, compositions, and methods for making same” (James Madison Innovations, Inc., priority 2014, dated 2021).
Converted amounts (≈) assume the structure as drawn.

Experiments:
Bacillus cereus = assay: Minimum inhibitory concentration, B. cereus; type: cell-based; conditions: Mueller-Hinton Broth, 37° C., 72 h
Description: (§1) The MIC values of all compounds from both double-tailed series were determined for four Gram-positive (Staphylococcus aureus, Enterococcus faecalis, Streptococcus agalactiae, and Bacillus cereus) and two Gram-negative (Escherichia coli and Pseudomonas aeruginosa) strains, which are shown in Table 3.
(§2) The Gram-positive bacterial strains used tested were Staphylococcus aureus subsp. aureus ATCC® 29213™, Enterococcus faecalis ATCC® 29212™, Bacillus cereus, and Streptococcus agalactiae J48.^58 The Gram-negative bacterial strains used were Escherichia coli ATCC® 25922™ and Pseudomonas aeruginosa ATCC® 27853™. All strains were grown in 1× Mueller-Hinton Broth at 37° C. for 12-24 h. For the MIC and combination studies, bacterial suspensions were prepared by diluting overnight cultures to 5×10^6 CFU/mL in 2× Mueller-Hinton Broth, so that when amphiphile solutions are added the final broth strength is 1×.
(§3) The methods used to determine the MIC and MBC were performed as previously described and followed the standards set forth by the Clinical and Laboratory Standards Institute (See Ladow, J. E.; Warnock, D. C.; Hamill, K. M.; Simmons, K. L.; Davis, R. W.; Schwantes, C. R.; Flaherty, D. C.; Willcox, J. A. L.; Wilson-Henjum, K.; Caran, K. L.; Minbiole, K. P. C.; Seifert, K. Bicephalic amphiphile architecture affects antibacterial activity. Eur. J. Med. Chem. 2011, 46, 4219-4226 and P. A. Wayne Methods for dilution antimicrobial tests for bacteria that grow aerobically. 2009.). Briefly, compounds were serially diluted and 100 μL of each dilution were added to the wells of a 96-well flat-bottomed microtiter plate in triplicate. After adding 100 μL of the bacterial cell suspension, the plates were incubated at 37° C. for 72 h. […] The MIC was considered to be bactericidal if the MBC was the same concentration or one concentration higher in the dilution series as the MIC, per Motyl, M.; Dorso, K.; Barrett, J.; Giacobbe, R. Basic microbiological techniques used in antibacterial drug discovery. Curr. Protoc. Pharmacol. 2006, Chapter 13.

Enterococcus faecalis = assay: Minimum inhibitory concentration, E. faecalis; type: cell-based, Enterococcus faecalis ATCC 29212; conditions: Mueller-Hinton Broth, 37° C., 72 h
Description: as §1, §2, §3

Pseudomonas aeruginosa [1] = assay: Minimum inhibitory concentration, P. aeruginosa; type: cell-based, Pseudomonas aeruginosa ATCC 27853; conditions: Mueller-Hinton Broth, 37° C., 72 h
Description: as §1, §2, §3

Staphylococcus aureus = assay: Minimum inhibitory concentration, S. aureus; type: cell-based, Staphylococcus aureus subsp. aureus ATCC 29213; conditions: Mueller-Hinton Broth, 37° C., 72 h
Description: as §1, §2, §3

[2] = Isothermal titration calorimetry: critical aggregation concentration and thermodynamics of aggregation; type: physicochemical
Description: Isothermal titration calorimetry (ITC) was used to determine the critical aggregation concentration (CAC) and the thermodynamic parameters at 37° C. associated with aggregate formation for each double-tailed amphiphile for the M-P and M-1 series, as shown in Table 1.
A Nano ITC was used to measure the heat change associated with the deaggregation of amphiphiles via power compensation. A concentrated aqueous solution of amphiphile (>>CAC) was titrated into a thermally controlled sample cell, initially containing pure water, in a series of discrete injections. Isothermal titration calorimetry was used to determine the critical aggregation concentration (CAC) and ΔHagg. Shown in FIG. 5 is the heat rate associated with each injection versus time for 9 (M-1,14,14). Shown in FIG. 6 is the integration of the heat per injection normalized by the number of moles of each injection versus the increasing concentration of amphiphile in the well. In FIG. 6, inset, CAC is determined by calculating the first derivative the heat curve.
During initial injections (Range I), measured heat changes are due to both the dilution of aggregates and deaggregation. This can be observed in the first 10 injections, where aggregates absorbed heat and disassociated into dissolved monomers. The heat change produced by each injection was approximately constant in this range. In Range II, injected aggregates don't fully dissociate, reducing the total absorbed heat for each subsequent injection. At concentrations well above the CAC (Range III), absorbed heat is attributed only to the dilution of aggregates and is approximately constant. […] CAC and thermodynamic data were not determined for the amphiphiles with the shortest tails [1 (M-P,8,8) and 6 (M-1,8,8)] because the heat evolved during injection was […] the threshold of the instrument.
The difference between the average heat of injections in Range I, representing the total heat due to the dilution of aggregates and deaggregation, and the average heat of injections in Range III, representing the heat due solely to the dilution of aggregates, gives the heat of deaggregation, ΔHdeagg. The ΔHdeagg for compound 9 (M-1,14,14) is 37 kJ/mol, corresponding to a heat of aggregate formation, ΔHagg, of −37 kJ/mol (ΔHagg=−ΔHdeagg).
The ΔGagg can be approximated for the aggregation of nonionic amphiphiles by the equation: ΔGagg=RT ln(CAC/55.5) (3)
where m is the concentration of counterions that associate with a aggregate and n is the number of monomers that associate to form an aggregate. […] BBA-Biomembranes. 2000, 1508, 69-85.)
The entropy of aggregation (ΔSagg) is dictated by a combination of entropic factors that favor or disfavor aggregate formation and can be approximated using the Gibbs-Helmholtz equation: ΔGagg=ΔHagg−TΔSagg (5)
CAC and ΔHagg were determined using a Nano-ITC (TA-Instruments). Prior to each experiment the sample cell was washed with dH2O (300 mL), ethanol (100 mL), dH2O (300 mL) and nanopure water (200 mL). Next, 950 μL of nanopure water was added to the sample cell. A concentrated aqueous solution (>>CAC) of amphiphile was prepared and equilibrated at 37° C. A 250 μL syringe was filled with the aqueous solution, and loaded into the Nano ITC. Multiple single injections in aliquots of 5 μL were injected into the sample cell with time intervals varying from 300 s to 1400 s. Samples were continuously stirred (300 rpm) throughout the titration. The Nano-Analyze program (TA-Instruments) was used to analyze the data. CAC and ΔHagg values reported are the average of two or more repeat experiments for each amphiphile.

[3] = as above; type: physicochemical; conditions: 37° C., single-tailed M-1,1,n series; for CAC: ITC
Streptococcus agalactiae = assay: Minimum inhibitory concentration, S. agalactiae; type: cell-based, Streptococcus agalactiae J48; conditions: Mueller-Hinton Broth, 37° C., 72 h
Description: as §1, §2, §3

Escherichia coli = assay: Minimum inhibitory concentration, E. coli; type: cell-based, Escherichia coli ATCC 25922; conditions: Mueller-Hinton Broth, 37° C., 72 h
Description: as §1, §2, §3

Pseudomonas aeruginosa [4] = conditions: literature comparison values; cited from earlier work
[5] = ITC, 37° C., pure water, double-tailed M-P and M-1 series

SMILES | MIC B. cereus (G+) (Bacillus cereus) [µM] | MIC E. faecalis (G+) (Enterococcus faecalis) [µM] | MIC P. aeruginosa (G−) (Pseudomonas aeruginosa [1]) [µM] | MIC S. aureus (G+) (Staphylococcus aureus) [µM] | ΔHagg ([2]; ITC, 37° C.) [kcal/mol] | ΔGagg [3] [kcal/mol] | −TΔSagg [3] [kcal/mol] | CAC [3] [mM] | MIC S. agalactiae (G+) (Streptococcus agalactiae) [µM] | MIC E. coli (G−) (Escherichia coli) [µM] | MIC against P. aeruginosa (comparison drugs) (Pseudomonas aeruginosa [4]) [µM] | −TΔSmic ([2]; 37° C., Gibbs-Helmholtz equation, double-tailed series) [kcal/mol] | ΔGmic ([2]; 37° C., approximated with RT ln(CAC/55.5), double-tailed series) [kcal/mol] | CMC [2, 5] [mM] | ΔHmic [2, 5] [kcal/mol] | −TΔSagg term (sign, in words) ([2]; Table 1)
CCCCCCCCCCCCCCCC[N+](C)(C)Cc1cc(C[N+](C)(C)C)cc(C[N+](C)(C)C)c1.[Br-].[Br-].[Br-] [Compound S5] | 4 | 8 | >250 | 31 | -3.35 | -5.26 | -2.03 | 9.2 | 4 | 31 | – | – | – | – | – | –
CCCCCCCCCCCCCCCCCCCCCC[N+](C)(C)Cc1cc(C[N+](C)(C)C)cc(C[N+](C)(C)C)c1.[Br-].[Br-].[Br-] [Compound S8] | >250 | >250 | >250 | >250 | -7.89 | -6.69 | 1.22 | 0.99 | >250 | 63 | – | – | – | – | – | –
NC[C@H]1O[C@H](O[C@H]2[C@H](O)[C@@H](O[C@H]3O[C@H](CO)[C@@H](O)[C@H](N)[C@H]3O)[C@H](N)C[C@@H]2N)[C@H](N)C[C@@H]1O [tobramycin] | – | – | – | – | – | – | – | – | – | – | 6.4 (≈ 2.99 µg/mL) | – | – | – | – | –
CCCCCCCCCCCCCC[N+](C)(C)Cc1cc(C[N+](C)(C)C)cc(C[N+](C)(C)C)c1.[Br-].[Br-].[Br-] [Compound S4] | 16 | 31 | >250 | 63 | -2.39 | -4.78 | -2.39 | 21 | 16 | 250 | – | – | – | – | – | –
CCCCCCCCCCCCCCCCCC[N+](C)(C)Cc1cc(C[N+](C)(C)C)cc(C[N+](C)(C)C)c1.[Br-].[Br-].[Br-] [Compound S6] | 4 | 4 | 125 | 16 | -5.26 | -5.74 | -0.574 | 5.0 | 2 | 16 | – | – | – | – | – | –
CCCCCCCCCCCCCCCCCCCC[N+](C)(C)Cc1cc(C[N+](C)(C)C)cc(C[N+](C)(C)C)c1.[Br-].[Br-].[Br-] [Compound S7] | 4 | 4 | 250 | 16 | -6.69 | -6.21 | 0.382 | 2.0 | 4 | 31 | – | – | – | – | – | –
CCCCCCCCCCCCCC[N+](C)(C)Cc1cc(C[n+]2ccccc2)cc(C[N+](C)(C)CCCCCCCCCCCCCC)c1.[Br-].[Br-].[Br-] [Compound 4] | 8 | 4 | 63 | 4 | – | – | – | – | 4 | 16 | – | -2.08 | -7.17 | 0.56 | -9.08 | positive
